How the values were obtained:
[1] = Aqueous solubility of drug substance; format: physicochemical; details: aqueous media over pH 3 to 8, aqueous buffer, pH range between 3 to 8
Method: (§1) Compound A for injection was manufactured as a concentrated frozen solution containing 10 mg/mL of free base intended to be diluted with an intravenous (IV) infusion vehicle (normal saline, 0.9% sodium chloride, injection). […] To achieve drug concentration of 10 mg/mL, formulation development focused on identifying acceptable pharmaceutical solvents, surfactants, and pH modifiers to achieve the required solubility of Compound A.

Measured pKa = format: physicochemical; details: free base
Method: as §1

Measured Log D = format: physicochemical; details: free base
[2] = Solubility/stability screening in IV excipients; format: physicochemical
Description: Initial solubility screening of Compound A focused on using different enabling excipients suitable for IV administration. The screening included surfactants, cosolvents, and pH modifiers (i.e., glacial acetic acid, and hydrochloric acid). […] As a result, the selected formulation to support the GLP toxicology study was comprised of 30% propylene glycol, 3% Solutol HS15, and 0.01 M in acetate buffer at pH 5±0.2.
The clinical formulation development was centered on using organic concentrates without water to avoid hydrolysis of Compound A. Additional solubility and stability evaluations of Compound A were conducted with different types of co-solvents and surfactants with and without butylated hydroxytoluene as antioxidant.

[3] = tested on: panel of solid and hematological tumor cell lines; experiment: Cell growth inhibition across tumor cell line panel; format: cell-based; details: versus MDM2 small molecule inhibitors (SMIs)
Method: (§2) All cell lines were cultured according to recommended procedures unless otherwise noted. For growth inhibition assays, cells were treated with compounds for indicated time points. Viability was assessed using Promega® CellTiter-Glo® assay, and apoptosis was assessed using Promega® Caspase-Glo® 3/7 assay. Cell cycle arrest and/or apoptosis in response to single agent or combination treatment was assessed using flow cytometry analysis on cells treated for 24h.

[4] = tested on: acute lymphoblastic leukemia (ALL) cell line RS4;11; experiment: MDM2/p53 pathway and apoptosis in RS4;11 cells; format: cell-based
MOLM-13 cell line = experiment: Combination apoptosis and cell killing in MOLM-13; format: cell-based; details: combination with venetoclax and midostaurin
Method: as §2

[5] = tested on: multiple heme indications (AML, T cell lymphomas, mantle cell lymphoma, DLBCL); experiment: In vitro activity across heme indications; format: cell-based; details: mantle cell lymphoma and DLBCL most sensitive
Method: as §2

[6] = tested on: CTG-2227 AML patient-derived xenograft (PDX) model; experiment: AML PDX model CTG-2227; format: in vivo, mice; details: 1 mg/kg, Q3W, IV
Method: (§3) AML patient cells from leukapheresis were intravenously (IV) injected and established in immunocompromised host strain mice. Surrogate animals were used to determine the level of engraftment targeting a threshold of ˜20% huCD45+ cells in BM. Mice were randomized on study and treatment was initiated. Vehicle and Compound A, 1 mg/kg were administered IV, every three weeks for six weeks (total of two doses of Compound A). At study end, whole blood, bone marrow and spleen were assessed by flow cytometry.

CTG-2240 AML PDX model = experiment: AML PDX model CTG-2240; format: in vivo, mice; details: 1 mg/kg, Q3W, IV
Method: as §3

CTG-2700 AML PDX model = experiment: AML PDX model CTG-2700; format: in vivo, mice; details: 1 mg/kg, Q3W, IV
Method: as §3

[7] = tested on: hCD45+ cells in bone marrow and AML blasts; experiment: Flow cytometry of AML PDX models; format: in vivo, mice; details: 1 mg/kg, Q3W
Method: as §3

MOLM-13 xenograft model = experiment: MOLM-13 xenograft combination study; format: in vivo
[8] = tested on: OCI-LY10 p53^WT ABC-subtype DLBCL xenograft model; experiment: OCI-LY10 DLBCL xenograft; format: in vivo
[9] = tested on: TMD8 p53^MUT ABC-subtype DLBCL xenograft model; experiment: TMD8 DLBCL xenograft; format: in vivo
RS4;11 ALL model = experiment: RS4;11 ALL xenograft efficacy; format: in vivo, NOD/SCID mice; details: for median survival: n=6 animals/group
Method: (§4) RS4;11 and MV4;11 tumors were established subcutaneously in the hind flank of NOD/SCID mice. Mice were randomized and treated with Compound A as either a single pulse dose or weekly for 3 weeks at doses matched for total AUC. MDM2 SMI DS-3032 (Milademetan) was dosed at its clinically equivalent dose and regimen of 3 days on/11 days off. Pharmacodynamic effects were assessed at mRNA level by RT-qPCR and protein level by quantitative targeted mass spectrometry and immunohistochemistry.

MV4;11 AML model = experiment: MV4;11 AML xenograft efficacy; format: in vivo, NOD/SCID mice
Method: as §4

MDM2 = target: T1, MDM2 (Homo sapiens, UniProt Q00987); experiment: Targeted proteomic analysis of RS4;11 tumors: MDM2; format: in vivo, NOD/SCID mice; details: one hour post dosing
T1 construct: RS4;11 and MV4;11 tumors were established subcutaneously in the hind flank of NOD/SCID mice; endogenous in cells; host or cells: RS4;11 xenograft tumors in NOD/SCID mice
Method: as §4

[10] = tested on: p53 pathway (p53, p21, PHLDA3); experiment: Targeted proteomic analysis of RS4;11 tumors: p53 pathway biomarkers; format: in vivo, NOD/SCID mice
Method: as §4

[11] = tested on: p53 pathway and cleaved caspase-3 (CC-3) in RS4;11 tumors; experiment: IHC analysis of RS4;11 tumors; format: in vivo, NOD/SCID mice; details: n=3/group
Method: as §4

[12] = tested on: p53 pathway and cleaved caspase-3 (CC-3) in MV4;11 tumors; experiment: IHC analysis of MV4;11 tumors; format: in vivo, NOD/SCID mice; details: n=3/group
Method: as §4

[13] = tested on: apoptotic gene BBC3 in RS4;11 tumors; experiment: qPCR analysis of RS4;11 tumors; format: in vivo, NOD/SCID mice
Method: as §4

T1 sequence (Q00987 whole entry): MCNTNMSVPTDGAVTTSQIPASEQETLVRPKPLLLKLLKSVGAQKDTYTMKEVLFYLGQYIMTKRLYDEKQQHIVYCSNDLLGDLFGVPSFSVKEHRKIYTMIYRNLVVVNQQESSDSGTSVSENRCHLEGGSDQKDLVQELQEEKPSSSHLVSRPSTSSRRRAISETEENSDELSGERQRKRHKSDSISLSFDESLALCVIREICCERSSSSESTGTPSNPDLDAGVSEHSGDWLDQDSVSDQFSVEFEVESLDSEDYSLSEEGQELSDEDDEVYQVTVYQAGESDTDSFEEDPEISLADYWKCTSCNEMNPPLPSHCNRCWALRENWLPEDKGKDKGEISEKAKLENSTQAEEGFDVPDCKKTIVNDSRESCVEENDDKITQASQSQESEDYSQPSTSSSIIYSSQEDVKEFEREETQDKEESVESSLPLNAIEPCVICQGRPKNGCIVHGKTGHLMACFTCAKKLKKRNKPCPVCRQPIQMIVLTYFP

## Cn1c(=O)n(C2CCC(=O)NC2=O)c2ccc(C3CCN(C(=O)[C@H]4CC[C@H](NC(=O)[C@@H]5NC6(CCCCC6)[C@@]6(C(=O)Nc7cc(Cl)ccc76)[C@H]5c5cccc(Cl)c5F)CC4)CC3)cc21 (stereo partly drawn) [Compound A, (3′R,4′S,5′R)-6″-chloro-4′-(3-chloro-2-fluorophenyl)-N-((1R,4R)-4-(4-(1-(2,6-dioxopiperidin-3-yl)-3-methyl-2-oxo-2,3-dihydro-1H-benzo[d]imidazol-5-yl)piperidine-1-carbonyl)cyclohexyl)-2″-oxodispiro[cyclohexane-1,2′-pyrrolidine-3′,3″-indoline]-5′-carboxamide]
[1]
  solubility: < 10 µg/mL
Measured pKa
  pKa: 5
Measured Log D
  logD: > 3.7
[2]; combination of polyethylene glycol 400, ethanol, polysorbate 80 and butylated hydroxytoluene, 10 mg/mL
  solubility and stability: sufficient solubility and stability
[2]; formulations containing propylene glycol, polyethylene glycol 400, Solutol HS15 and polysorbate 80 at low pH
  solubility: significantly enhanced
[3]
  cell growth inhibition compared to SMIs: > 200 fold
[4]; compared with reversible SMIs
  effect on p53-dependent upregulation of MDM2 protein levels: can overcome the p53-dependent upregulation of MDM2 protein levels
[4]; pulsed dose, mediated through p53 target genes
  apoptosis in washout experiments: can lead to apoptosis
[4]; short 2 hour exposures, versus SMIs
  p53 stabilization: more potently stabilize p53 than SMIs
MOLM-13 cell line
  induction of apoptosis and cell killing: enhances induction of apoptosis and cell killing
[5]
  in vitro activity: active across multiple heme indications
[6]
  tumor response: tumor regression
CTG-2240 AML PDX model
  tumor response: partial responses
CTG-2700 AML PDX model
  tumor response: partial responses
[7]
  hCD45+ cells in bone marrow and AML blasts: significantly reduces
MOLM-13 xenograft model; single dose of Compound A in combination with daily dosing of venetoclax
  anti-tumor activity: sustained tumor regression
[8]
  activity in xenograft model: highly active
[9]
  highly active in xenograft model: not
RS4;11 ALL model; exposure-matched weekly dosing
  tumor response: tumor stasis
RS4;11 ALL model; maintained for 12 to 22 hours
  plasma concentration required for tumor regression: above 0.01 uM
RS4;11 ALL model; single dose at 3 mg/kg
  median survival: 50 days
RS4;11 ALL model; single doses
  tumor response: tumor regression
MV4;11 AML model; single dose at 3 mg/kg
  complete responses: 5 of 6
MV4;11 AML model; single dose at 3 mg/kg, 80 days post dosing
  tumor-free on study: 4 of 6
MDM2
  degradation of MDM2 in tumors: robust degradation
[10]
  proteomics biomarkers p53, p21 (cell cycle arrest marker) and PHLDA3 (apoptotic marker): upregulation
[11]; single dose versus exposure-matched weekly dosing
  activation of the p53 pathway and induction of CC-3 (IHC): more robust activation of the p53 pathway and induction of cleaved caspase-3 (CC-3)
[12]; exposure-matched weekly dosing
  robust activation of the p53 pathway and induction of CC-3 (IHC): not
[12]; single dose
  activation of the p53 pathway and induction of CC-3 (IHC): robust activation of the p53 pathway and induction of cleaved caspase-3 (CC-3)
[13]; RS4;11 tumors
  plasma concentration required for induction of the apoptotic gene BBC3: above 0.02 uM
[13]; exposure-matched weekly dosing, n=3/group
  increase in apoptotic markers (qPCR): only a moderate increase
[13]; single doses that lead to tumor regression, n=3/group
  induction of the apoptotic gene BBC3 (qPCR): robust induction

## CC1(C)CCC2(CC1)N[C@@H](C(=O)N[C@@H]1CC[C@@H](C(N)=O)OC1)[C@H](c1ccnc(Cl)c1F)[C@]21C(=O)Nc2cc(Cl)ccc21 [DS-3032, Milademetan, reference compound]
RS4;11 ALL model; clinically equivalent dosing regimen (3 days on/11 days off)
  median survival: 12 days
MV4;11 AML model; clinically equivalent dose and regimen, n=6 animals/group
  complete responses: No complete responses
[11]; treatment with the SMI
  induction of CC-3 (IHC): not observed
[12]; similar to the lower weekly dosing regimen of Compound A
  induction of CC-3 (IHC): modest

## Nc1ccn([C@@H]2O[C@H](CO)[C@@H](O)[C@@H]2O)c(=O)n1 [cytarabine]
MOLM-13 xenograft model; combination of cytarabine and venetoclax
  anti-tumor activity: no significant anti-tumor activity
MOLM-13 xenograft model; cytarabine alone
  anti-tumor activity: no significant anti-tumor activity
